Results from patent US11439148B2, “Pyrimidine derivatives” (SYNGENTA PARTICIPATIONS AG, priority 2017, dated 2022).
Where “and” joins values, the source holds several entries; their conditions need not be identical. Equal values may be shown once.

What follows are compounds tested on weed species BRAPP, COMBE, DIGSA, POLCO (assay: Adjuvant efficacy with mesotrione, glasshouse spray test, average over all species (BRAPP set)). Settings: mesotrione SC, mean over 30 and 60 g/ha; adjuvant 0.2% v/v (none in No Adjuvant rows); 21 days; Tests 1-3, species set with BRAPP (COMBE only in Test 2).
Type: in vivo
Description: (§1) The efficacy of adjuvants 1-12 as an adjuvant for the herbicide mesotrione was tested in a glasshouse against four weed species sown into standard soil in pots and cultivated under controlled conditions in a glasshouse (at 24/18° C. day/night; 16 hours light; 65% humidity). Mesotrione was added to the spray tank as a standard SC (suspension concentrate) formulation.
(§2) The spray tests were also carried out using mesotrione in conjunction with adjuvants 1-12. The adjuvants were added to the spray solution at a rate of 0.2% v/v unless otherwise stated. All spray solutions also contained 10% w/w of iso-Propanol. The weed species and their BBCH growth stage at spraying were Brachiaria platyphylla (BRAPP; growth stage 13-14) or Brachiaria plantaginea (BRAPL; growth stage 13-14), Commelina benghalensis (COMBE; growth stage 13), Digitaria sanguinalis (DIGSA; growth stage 14), and Polygonum convolvulus (POLCO; growth stage 13-14). Each spray test was replicated three times.
(§3) The test plants were then grown in a glasshouse under controlled conditions (at 24/18° C. day/night; 16 hours light; 65% humidity) and watered twice a day. The efficacy of the herbicide was assessed visually and expressed as a percentage of the leaf area killed. Samples were assessed at a time period of 21 days following application. The results shown in Table 3 below are mean averages over the two rates of mesotrione and the three replicates.

Row | Structure (SMILES) | Mean % Herbicidal Activity Average over all Species [%]
1 | CCCCCCCCCOc1cc(OCCOCCOCCOCCOCCOCCOCCOCCOCCOCCOC)ncn1 [Adjuvant 5] | 71
2 | CCCCCCCCC=CCCCCCCCCOc1cc(OCCOCCOCCOCCOCCOCCOCCOCCOCCOCCOCCOCCOCCOCCOCCOCCOCCOCCOCCOCCOC)ncn1 [Adjuvant 11] | 78
3 | CCCCCCOc1cc(OCCOCCOC)ncn1 [Adjuvant 1] | 72
4 | CCCCCCCCCCCCOc1cc(OCC(C)OCC(C)OCC(C)OC)ncn1 (stereo not shown) [Adjuvant 12] | 84

These compounds were tested on Septoria tritici (assay: Adjuvant efficacy with epoxiconazole on inoculated wheat plants). Settings: epoxiconazole SC 1.5, 4, 8.5 and 20 mg/l, 4 replicates, adjuvant 0.1% v/v (none in No Adjuvant rows), sprayed 4 days after inoculation, percentage of leaf area infected 17-18 days after infection, Tests 1-3 separate runs.
Type: in vivo
Description: Adjuvants 6, 7, 8 and 10 were tested as adjuvants for agrochemical compositions comprising epoxiconazole.
Two week old wheat plants were inoculated with the fungus Septoria tritici. […] All spray solutions also contained 10% v/v of iso-Propanol. The leaves of the plants were assessed visually 17-18 days after infection and the damage was expressed as the percentage of the leaf area infected.

Row | Structure (SMILES) | Disease Damage Mean [%]
5 | CCCCCCCCCCCCCCCCOc1cc(OCCOCCOCCOCCOCCOCCOCCOCCOCCOCCOC)ncn1 [Adjuvant 8] | 36

Each compound was assayed on Avena fatua (AVEFA) (assay: Adjuvant efficacy with pinoxaden, glasshouse spray test). Settings: pinoxaden EC, mean over 7.5 and 15 g/ha and 3 replicates; adjuvant 0.2% v/v (none in No Adjuvant rows); % leaf area killed, 21 days after application; Tests 1-4 separate runs.
Type: in vivo
Description: (§4) The efficacy of adjuvants 1-12 as adjuvants for the herbicide pinoxaden were tested in a glasshouse against four weed species, sown into standard soil in pots and cultivated under controlled conditions in a glasshouse (at 20/16° C. day/night; 16 hours light; 65% humidity). Pinoxaden was added to the spray tank as a standard EC (emulsifiable concentrate) formulation.
(§5) The spray tests were also carried out using pinoxaden in conjunction with adjuvants 1-12. The adjuvants were added to the spray solution at a rate of 0.2% v/v unless otherwise stated. All spray solutions also contained 10% w/w of iso-Propanol. The weed species and their BBCH growth stage at spraying were Avena fatua (AVEFA; growth stage 12), Lolium perenne (LOLPE; growth stage 13), Alopecurus myosuroides (ALOMY; growth stage 13), and Setaria viridis (SETVI; growth stage 13-14). Each spray test was replicated three times. The test plants were then grown in a glasshouse under controlled conditions (at 20/16° C. day/night; 16 hours light; 65% humidity) and watered twice a day. The efficacy of the herbicide was assessed visually and expressed as a percentage of the leaf area killed. Samples were assessed at a time period of 21 days following application. The results shown in Table 4 below are mean averages over the two rates of pinoxaden, and the three replicates.

Row | Structure (SMILES) | Mean % Herbicidal Activity AVEFA
6 | CCCCCCCCCCCCCCCCOc1cc(OCCOCCOCCOCCOCCOCCOCCOCCOCCOCCOC)ncn1 [Adjuvant 8] | 94% and 78% and 84%
7 | CCCCCCCCCOc1cc(OCCOCCOCCOCCOCCOCCOCCOCCOCCOCCOC)ncn1 [Adjuvant 5] | 69%
8 | CCCCCCCCC=CCCCCCCCCOc1cc(OCCOCCOCCOCCOCCOCCOCCOCCOCCOCCOCCOCCOCCOCCOCCOCCOCCOCCOCCOCCOC)ncn1 [Adjuvant 11] | 41%
9 | CCCCCCOc1cc(OCCOCCOC)ncn1 [Adjuvant 1] | 78%
10 | CCCCCCCCCCCCOc1cc(OCC(C)OCC(C)OCC(C)OC)ncn1 (stereo not shown) [Adjuvant 12] | 87%

What follows are compounds tested on Setaria viridis (SETVI) in the same assay as above. Settings: pinoxaden EC, mean over 7.5 and 15 g/ha and 3 replicates; adjuvant 0.2% v/v (none in No Adjuvant rows); % leaf area killed, 21 days after application; Tests 1-4 separate runs.
Type: in vivo
Description: as §4, §5

Row | Structure (SMILES) | Mean % Herbicidal Activity SETVI
11 | CCCCCCCCCCCCCCCCOc1cc(OCCOCCOCCOCCOCCOCCOCCOCCOCCOCCOC)ncn1 [Adjuvant 8] | 94% and 88% and 89%
12 | CCCCCCCCCOc1cc(OCCOCCOCCOCCOCCOCCOCCOCCOCCOCCOC)ncn1 [Adjuvant 5] | 63%
13 | CCCCCCCCC=CCCCCCCCCOc1cc(OCCOCCOCCOCCOCCOCCOCCOCCOCCOCCOCCOCCOCCOCCOCCOCCOCCOCCOCCOCCOC)ncn1 [Adjuvant 11] | 84%
14 | CCCCCCOc1cc(OCCOCCOC)ncn1 [Adjuvant 1] | 82%
15 | CCCCCCCCCCCCOc1cc(OCC(C)OCC(C)OCC(C)OC)ncn1 (stereo not shown) [Adjuvant 12] | 94%

Each compound was assayed on Alopecurus myosuroides (ALOMY) in the same assay as above. Settings: pinoxaden EC, mean over 7.5 and 15 g/ha and 3 replicates; adjuvant 0.2% v/v (none in No Adjuvant rows); % leaf area killed, 21 days after application; Tests 1-4 separate runs.
Type: in vivo
Description: as §4, §5

Row | Structure (SMILES) | Mean % Herbicidal Activity ALOMY
16 | CCCCCCCCCCCCCCCCOc1cc(OCCOCCOCCOCCOCCOCCOCCOCCOCCOCCOC)ncn1 [Adjuvant 8] | 2% and 15% and 22%
17 | CCCCCCCCCOc1cc(OCCOCCOCCOCCOCCOCCOCCOCCOCCOCCOC)ncn1 [Adjuvant 5] | 10%
18 | CCCCCCCCC=CCCCCCCCCOc1cc(OCCOCCOCCOCCOCCOCCOCCOCCOCCOCCOCCOCCOCCOCCOCCOCCOCCOCCOCCOCCOC)ncn1 [Adjuvant 11] | 11%
19 | CCCCCCOc1cc(OCCOCCOC)ncn1 [Adjuvant 1] | 20%
20 | CCCCCCCCCCCCOc1cc(OCC(C)OCC(C)OCC(C)OC)ncn1 (stereo not shown) [Adjuvant 12] | 23%

What follows are compounds tested on Lolium perenne (LOLPE) in the same assay as above. Settings: pinoxaden EC, mean over 7.5 and 15 g/ha and 3 replicates; adjuvant 0.2% v/v (none in No Adjuvant rows); % leaf area killed, 21 days after application; Tests 1-4 separate runs.
Type: in vivo
Description: as §4, §5

Row | Structure (SMILES) | Mean % Herbicidal Activity LOLPE
21 | CCCCCCCCCCCCCCCCOc1cc(OCCOCCOCCOCCOCCOCCOCCOCCOCCOCCOC)ncn1 [Adjuvant 8] | 87% and 42% and 73%
22 | CCCCCCCCCOc1cc(OCCOCCOCCOCCOCCOCCOCCOCCOCCOCCOC)ncn1 [Adjuvant 5] | 21%
23 | CCCCCCCCC=CCCCCCCCCOc1cc(OCCOCCOCCOCCOCCOCCOCCOCCOCCOCCOCCOCCOCCOCCOCCOCCOCCOCCOCCOCCOC)ncn1 [Adjuvant 11] | 15%
24 | CCCCCCOc1cc(OCCOCCOC)ncn1 [Adjuvant 1] | 41%
25 | CCCCCCCCCCCCOc1cc(OCC(C)OCC(C)OCC(C)OC)ncn1 (stereo not shown) [Adjuvant 12] | 76%

The compounds below were run on Septoria tritici (assay: Adjuvant efficacy with isopyrazam on inoculated wheat plants). Settings: isopyrazam SC, mean over 6.5, 16, 40 and 100 mg/l and 4 replicates, sprayed 4 days after inoculation, percentage of leaf area infected 17-18 days after infection, Tests 1-3 separate runs.
Type: in vivo
Description: Adjuvants 6, 7, 8 and 10 were tested as adjuvants for agrochemical compositions comprising isopyrazam.
Two week old wheat plants were inoculated with the fungus Septoria tritici. […] All spray solutions also contained 10% v/v of iso-Propanol. The leaves of the plants were assessed visually 17-18 days after infection and the damage was expressed as the percentage of the leaf area infected. Each spray test was replicated four times across the four application rates.
The results shown in Table 6 below are mean averages over the four rates of isopyrazam and the four replicates.

Row | Structure (SMILES) | Disease Damage Mean [%]
26 | CCCCCCCCCCCCCCCCOc1cc(OCCOCCOCCOCCOCCOCCOCCOCCOCCOCCOC)ncn1 [Adjuvant 8] | 20

These compounds were tested on Brachiaria platyphylla (BRAPP) (assay: Adjuvant efficacy with mesotrione, glasshouse spray test). Settings: mesotrione SC, mean over 30 and 60 g/ha and 3 replicates; adjuvant 0.2% v/v (none in No Adjuvant rows); % leaf area killed, 21 days after application; Tests 1-3 separate runs.
Type: in vivo
Description: as §1, §2, §3

Row | Structure (SMILES) | Mean % Herbicidal Activity BRAPP [%]
27 | CCCCCCCCCOc1cc(OCCOCCOCCOCCOCCOCCOCCOCCOCCOCCOC)ncn1 [Adjuvant 5] | 48
28 | CCCCCCCCC=CCCCCCCCCOc1cc(OCCOCCOCCOCCOCCOCCOCCOCCOCCOCCOCCOCCOCCOCCOCCOCCOCCOCCOCCOCCOC)ncn1 [Adjuvant 11] | 58
29 | CCCCCCOc1cc(OCCOCCOC)ncn1 [Adjuvant 1] | 53
30 | CCCCCCCCCCCCOc1cc(OCC(C)OCC(C)OCC(C)OC)ncn1 (stereo not shown) [Adjuvant 12] | 69

These compounds were tested on four weed species (ALOMY, AVEFA, LOLPE, SETVI) (assay: Adjuvant efficacy with pinoxaden, glasshouse spray test, average over all species). Settings: pinoxaden EC, mean over 7.5 and 15 g/ha, adjuvant 0.2% v/v (none in No Adjuvant rows), 21 days, average of ALOMY.
Type: in vivo
Description: as §4, §5

Row | Structure (SMILES) | Mean % Herbicidal Activity Average over all Species
31 | CCCCCCCCCCCCCCCCOc1cc(OCCOCCOCCOCCOCCOCCOCCOCCOCCOCCOC)ncn1 [Adjuvant 8] | 69% and 56% and 67%
32 | CCCCCCCCCOc1cc(OCCOCCOCCOCCOCCOCCOCCOCCOCCOCCOC)ncn1 [Adjuvant 5] | 41%
33 | CCCCCCCCC=CCCCCCCCCOc1cc(OCCOCCOCCOCCOCCOCCOCCOCCOCCOCCOCCOCCOCCOCCOCCOCCOCCOCCOCCOCCOC)ncn1 [Adjuvant 11] | 38%
34 | CCCCCCOc1cc(OCCOCCOC)ncn1 [Adjuvant 1] | 55%
35 | CCCCCCCCCCCCOc1cc(OCC(C)OCC(C)OCC(C)OC)ncn1 (stereo not shown) [Adjuvant 12] | 70%

Each compound was assayed on four weed species (ABUTH, CHEAL, DIGSA, SETVI) (assay: Adjuvant efficacy with nicosulfuron, glasshouse spray test, average over all species). Settings: nicosulfuron WG, mean over 15 and 60 g/ha, adjuvant 0.2% v/v (none in No Adjuvant rows), 21 days, average of ABUTH.
Type: in vivo
Description: The efficacy of adjuvants 1-12 as adjuvants for the herbicide nicosulfuron were tested in a glasshouse against four weed species sown into standard soil in pots and cultivated under controlled conditions in a glasshouse (at 24/18° C. day/night; 16 hours light; 65% humidity). Nicosulfuron was added to the spray tank as a standard WG (water dispersible granule) formulation.
The spray tests were also carried out using nicosulfuron in conjunction with adjuvants 1-12. The adjuvant was added to the spray solution at a rate of 0.2% v/v. All spray solutions also contained 12.5% v/v of iso-Propanol. The weed species and their BBCH growth stage at spraying were Abutilon theophrasti (ABUTH; growth stage 13), Chenopodium album (CHEAL; growth stage 13-14), Digitaria sanguinalis (DIGSA; growth stage 11), and Setaria viridis (SETVI; growth stage 13). Each spray test was replicated three times. The test plants were then grown in a glasshouse under controlled conditions (at 24/18° C. day/night; 16 hours light; 65% humidity) and watered twice a day. The efficacy of the herbicide was assessed visually and expressed as a percentage of the leaf area killed. Samples were assessed at a time period of 21 days following application. The results shown in Table 1 below are mean averages over the two rates of nicosulfuron, and the three replicates.

Row | Structure (SMILES) | Mean % Herbicidal Activity Average over all Species
36 | CCCCCCCCCCCCCCCCOc1cc(OCCOCCOCCOCCOCCOCCOCCOCCOCCOCCOC)ncn1 [Adjuvant 8] | 80% and 85% and 86%
37 | CCCCCCCCCOc1cc(OCCOCCOCCOCCOCCOCCOCCOCCOCCOCCOC)ncn1 [Adjuvant 5] | 63%
38 | CCCCCCCCC=CCCCCCCCCOc1cc(OCCOCCOCCOCCOCCOCCOCCOCCOCCOCCOCCOCCOCCOCCOCCOCCOCCOCCOCCOCCOC)ncn1 [Adjuvant 11] | 82%
39 | CCCCCCOc1cc(OCCOCCOC)ncn1 [Adjuvant 1] | 83%
40 | CCCCCCCCCCCCOc1cc(OCC(C)OCC(C)OCC(C)OC)ncn1 (stereo not shown) [Adjuvant 12] | 85%
